Reference: PubChem BioAssay AID1013 (Columbia University Molecular Screening Center, 2008)
Active and inactive are the calls of the source. How the calls were made is not given here.

How the values were obtained:
[1] = blockers of VCAM1 upregulation by TNFa – imaging, TNFa stimulus, retest and dose response, confirmation (AID 1013); settings: TNFa-stimulated cells, VCAM1 expression imaging; cell count; at 10 µM; stronger effect = lower value;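 on cell count: compound on cells 1 h before TNFa then 24 h more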
[2] = system: TNFa-stimulated cells, VCAM1 expression imaging; experiment: as above

IC50 [2] | Compound | cell count [1] [%]
0.6 µM | CCOC(=O)c1[nH]c(C)c(C(=O)c2cc(F)ccc2F)c1C | 70.7
> 10 µM (inactive) | Cc1ccc2nc(SCC(=O)Nc3cc(C(F)(F)F)ccc3N3CCOCC3)[nH]c2c1 | 105
2.07 µM | COc1ccc(C(=O)C(CN2CCCC2)c2ccccc2)cc1 (stereo unspecified) | 73.4
> 10 µM (inactive) | COc1cc(C(=O)N/N=C/c2ccsc2C)cc(OC)c1OC | 48.6
1.01 µM | CCCC1=Nc2cc(C(=O)NCCCOCC)ccc2Sc2ccccc21 | 31.7
> 10 µM (inactive) | CC(C)Oc1ccccc1C1CC(=O)Nc2cc3c(cc21)OCCO3 (stereo unspecified) | 104
> 10 µM (inactive) | COc1ccccc1-n1cnc2cc(NCc3ccco3)ccc21 | 41.8
> 10 µM (inactive) | O=Cc1cc2ccccc2nc1SCc1ccc(Cl)c(Cl)c1 | 109
> 10 µM (inactive) | Cc1cc(NC(=O)CSc2nc3ccccc3c(=O)n2C2CCCC2)no1 | 111
> 10 µM (inactive) | C=CCn1c(SCc2c(C)noc2C)nc2ccccc2c1=O | 43.3
1.06 µM | COc1ccc(NC(=O)/C(Cl)=C(/Cl)S(=O)Cc2ccccc2)cn1 (stereo unspecified) | 34.2
> 10 µM (inactive) | N#CC1=C(N)Oc2c(ccc3ccccc23)C1c1cccs1 (stereo unspecified) | 69.2
1.63 µM | O=S(=O)(C/C(=C/CO)S(=O)(=O)c1ccccc1)c1ccccc1 | 9.93
> 10 µM (inactive) | O=C(c1ccc(Br)cc1)c1cc([N+](=O)[O-])ccc1N1CCCCC1 | 102
1.77 µM | C#CC(=O)N(c1cccc(OC)c1)C(C(=O)NC1CCCC1)c1cccs1 (stereo unspecified) | 0.98
0.0384 µM | CCN(CC)c1ccc(C2=NNC(=O)CC2C)cc1[N+](=O)[O-] (stereo unspecified) | 50.8
> 10 µM (inactive) | O=c1cc(C(Cl)(Cl)Cl)oc2c1ccc1ccccc12 | 104
1.76 µM | COc1cc(C2C3=C(Nc4ncnn42)c2ccccc2CC3)cc(OC)c1OC (stereo unspecified) | 27.6
> 10 µM (inactive) | Cc1ccc(O)c(NC(=O)C2CC(c3c(F)cccc3Cl)=NO2)c1 (stereo unspecified) | 105
3.52 µM | O=C(c1ccco1)N1CCN(C(=O)N2c3ccccc3Sc3ccccc32)CC1 | 40.3

IC50 [2] | Compound | cell count [1] [%]
> 10 µM (inactive) | NC(=S)N/N=C/c1ccc(-c2ccc(Cl)c(Cl)c2)o1 | 93.5
0.778 µM | CCOC(=O)c1[nH]c(C)c(C(=O)N2CCc3ccccc32)c1C | 61.8
0.415 µM | CSc1nc(N(C)NC(=O)c2cccc(C)c2)c2ccccc2n1 | 39.5
2.86 µM | O=C(OCn1ncc(Br)c(Br)c1=O)c1ccc(F)cc1 | 2.02
> 10 µM (inactive) | CC1=C([N+](=O)[O-])C(c2ccccc2)C2=C(N1)c1ccccc1C2=O (stereo unspecified) | 111
> 10 µM (inactive) | O=C1c2cccc3c([N+](=O)[O-])ccc(c23)C(=O)N1c1nccs1 | 101
> 10 µM (inactive) | Cc1cc(=O)oc2cc(OCC3CC(c4ccccc4Cl)=NO3)ccc12 (stereo unspecified) | 106
> 10 µM (inactive) | O=C(COC(=O)c1ccccc1C(=O)c1ccc(Cl)c([N+](=O)[O-])c1)NC1CCCCCC1 | 91
> 10 µM (inactive) | COc1ccc(S(=O)(=O)Nc2cc3c(C(C)=O)c(C)oc3c3ccccc23)cc1 | 113
4.86 µM | O=S(=O)(c1ccc(Cl)cc1)c1snnc1-c1ccccc1 | 71.6
> 10 µM (inactive) | C=CCSc1nc2ccccc2n1C(=O)/C=C/c1cc(OC)c(OC)c(OC)c1 | 106
> 10 µM (inactive) | O=[N+]([O-])c1ccc(O)c(/C=N/Nc2ccc(Cl)nn2)c1 | 106
0.15 µM | OCCN=C1CCCc2c1[nH]c1ccc(Br)cc21 | 76.3
> 10 µM (inactive) | Cc1cc(NC(=O)CSc2nc(-c3ccco3)cc(C(F)(F)F)n2)no1 | 94.3
0.557 µM | COc1ccc(C2=Nn3c(nnc3-c3ccccc3OC)SC2)cc1OC | 46.9
> 10 µM (inactive) | O=[N+]([O-])/C=C/c1c(OCc2ccccc2)ccc2ccccc12 | 112
> 10 µM (inactive) | COc1ccc(N=c2oc3ccc(OC)cc3cc2-c2nc3ccccc3[nH]2)cc1 | 110
> 10 µM (inactive) | CCOC(=O)c1[nH]c(C)c(C(=O)c2ccc(C)cc2)c1C | 85.6
0.517 µM | Cc1cc(C)c(/C=N/NC(N)=O)c(C)c1/C=N/NC(N)=O | 71.9
3.16 µM | COc1ccc(NS(=O)(=O)c2cc(C)ccc2NC(=O)c2cc(C)oc2C)cc1 | 71

IC50 [2] | Compound | cell count [1] [%]
< 0.1 µM | CCOc1ccc(C2=Nn3c(nnc3-c3ccccc3OC)SC2)cc1 | 32.1
3.83 µM | CC(=O)c1ccc(Oc2cc(C)nc(-n3nc(C)cc3C)n2)cc1 | 46.9
> 10 µM (inactive) | Cc1cc(C)c(S(=O)(=O)Nc2ccc3c4c(cccc24)CC3)c(C)c1 | 106
2.93 µM | COc1ccc(OC)c(NS(=O)(=O)c2ccc(N3CCCC3=O)cc2)c1 | 43.7
> 10 µM (inactive) | CC[C@@H](C)[C@H](NC(=O)OC(C)(C)C)c1nnc(S(=O)(=O)Cc2cc(C)ccc2C)o1 | 117
> 10 µM (inactive) | Cn1cc(/C=N/n2cnc3scc(-c4ccc(Cl)cc4)c3c2=O)c2ccccc21 | 88.1
> 10 µM (inactive) | COc1cc(C(=O)N2CCN(c3cc(Cl)ccc3Cl)CC2)cc(OC)c1OC | 82.9
0.38 µM | CCN(CC)c1ccc2c(c1)OC(N)=C(C#N)C2c1cccnc1 (stereo unspecified) | 29.8
> 10 µM (inactive) | Cc1ccc(O)c(NC(=O)CCC2CCCCC2)c1 | 113
> 10 µM (inactive) | CC1=CC(C)(C)N(S(=O)(=O)c2ccc(C)cc2)c2cc(C)ccc21 | 113
3.02 µM | COc1ccc(-n2nnnc2S(=O)(=O)CC(=O)N2CCCCC2)cc1 | 4.64
> 10 µM (inactive) | CCCOC(=O)c1[nH]c2c(c1C)C(=O)CC(c1cccs1)C2 (stereo unspecified) | 89
> 10 µM (inactive) | Oc1ccc(Nc2nc(-c3ccc4ccccc4c3)cs2)cc1 | 92.9
> 10 µM (inactive) | Cc1ccc(-c2nc(NC(=O)c3nn(C)cc3[N+](=O)[O-])sc2C)cc1C | 94.9
0.636 µM | O=C(N/N=C/C(Br)=C\c1ccccc1)c1n[nH]c2c1CCC2 | 29.2
> 10 µM (inactive) | O=Cc1cc2ccccc2nc1SCc1ccc(Cl)cc1 | 99.9
> 10 µM (inactive) | COc1ccc(C(=O)c2c(C(F)(F)F)oc3c2C(=O)c2ccccc2C3=O)cc1 | 105
> 10 µM (inactive) | O=C1c2cccc3c([N+](=O)[O-])ccc(c23)C(=O)N1c1ccc(Cl)cn1 | 103
